In the NIST ThermoML archive (doi:10.1021/acs.jced.5b00544):

Experiment: mean ionic activity coefficient (dimensionless); mn = molality of the nth substance listed, in mol/kg
Settings: 101 kPa, Liquid

[Cl-].[K+] [potassium chloride] + O
mean ionic activity coefficient
Settings | 273.15 K | 283.15 K | 293.15 K | 303.15 K | 313.15 K | 323.15 K | 333.15 K | 343.15 K
m1 = 0.1 | 0.772 | 0.771 | 0.77 | 0.767 | 0.764 | 0.761 | 0.757 | 0.752
m1 = 0.2 | 0.719 | 0.719 | 0.719 | 0.716 | 0.714 | 0.71 | 0.705 | 0.699
m1 = 0.5 | 0.643 | 0.647 | 0.651 | 0.649 | 0.647 | 0.644 | 0.638 | 0.632
m1 = 1 | 0.581 | 0.592 | 0.602 | 0.602 | 0.603 | 0.601 | 0.596 | 0.588

[Cl-].[Na+] [sodium chloride] + O
mean ionic activity coefficient
Settings | 273.15 K | 283.15 K | 293.15 K | 303.15 K | 313.15 K | 323.15 K | 333.15 K | 343.15 K | 353.15 K
m1 = 0.1 | 0.781 | 0.78 | 0.779 | 0.777 | 0.774 | 0.77 | 0.766 | 0.761 | 0.752
m1 = 0.2 | 0.734 | 0.735 | 0.735 | 0.732 | 0.729 | 0.725 | 0.72 | 0.713 | 0.703
m1 = 0.25 | 0.719 | 0.72 | 0.721 | 0.718 | 0.715 | 0.711 | 0.706 | 0.699 | 0.688
m1 = 0.5 | 0.672 | 0.677 | 0.681 | 0.68 | 0.678 | 0.674 | 0.667 | 0.659 | 0.647
m1 = 0.7 | 0.651 | 0.658 | 0.665 | 0.666 | 0.664 | 0.66 | 0.653 | 0.644 | 0.633
m1 = 0.75 | 0.646 | 0.655 | 0.662 | 0.663 | 0.662 | 0.658 | 0.651 | 0.641 | 0.631
m1 = 1 | 0.629 | 0.641 | 0.653 | 0.655 | 0.655 | 0.652 | 0.644 | 0.633 | 0.624
